Experimental findings from patent publication US9796713B2, “Tricyclic compounds as alpha-7 nicotinic acetylcholine receptor ligands” (BRISTOL-MYERS SQUIBB COMPANY, priority 2014, dated 2017) are described below.

pEC50: −log10 of the molar value. A value given as a limit tells only on which side of the number the result lay.

The pEC50 is −log10 of the EC50, conventionally taken in molar units.

T2 sequence (Q05941 23-502): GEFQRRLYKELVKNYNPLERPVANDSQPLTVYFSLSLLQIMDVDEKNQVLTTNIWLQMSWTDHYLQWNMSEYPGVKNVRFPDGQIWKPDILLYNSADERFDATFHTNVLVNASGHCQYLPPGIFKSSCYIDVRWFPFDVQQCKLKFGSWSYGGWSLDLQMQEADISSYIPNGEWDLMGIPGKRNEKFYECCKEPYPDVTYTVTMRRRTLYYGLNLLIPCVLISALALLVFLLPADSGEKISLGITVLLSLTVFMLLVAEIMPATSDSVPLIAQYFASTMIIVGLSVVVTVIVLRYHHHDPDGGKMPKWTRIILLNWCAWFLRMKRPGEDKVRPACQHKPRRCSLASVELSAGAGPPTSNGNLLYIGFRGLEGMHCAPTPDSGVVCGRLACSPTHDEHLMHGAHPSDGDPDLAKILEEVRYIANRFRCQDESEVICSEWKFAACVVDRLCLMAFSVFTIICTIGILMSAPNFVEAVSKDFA

In the first assay the target is T1, α-7 nicotinic ACh receptor ion channel (Rattus norvegicus, UniProt Q05941).
T1 construct: expressed in transfected cells
T1 sequence (Q05941 23-502): as above
Kind of assay: FLIPR Ca2+-sensitive fluorescence assay of α7 nicotinic acetylcholine receptor channel function (agonist activity) in HEK 293 cells. In kind it is cell-based. Conditions: Table 3; Ca2+ flux, HEK-293 cells expressing the channel. The procedure: I) α7 Nicotinic Acetycholine Receptor Binding. Membranes were prepared for binding using HEK293 cells stably expressing the rat α7 nicotinic acetycholine receptor (rat α7 nAChR). Cells were homogenized at 4° C. in hypotonic lysis buffer consisting of 10 mM Tris (pH 7.4), 5 mM EDTA and protease inhibitors and centrifuged at 32000×g for 20 minutes. The pellet was washed once in membrane wash buffer consisting of 50 mM Tris (pH 7.4), 1 mM EDTA and protease inhibitors and centrifuged at 32000×g for 20 minutes. This pellet was then resuspended in assay buffer consisting 50 mM KH2PO4 (pH 7.4 at 25° C.), 1 mM EDTA, 0.005% Triton-X 100 and 0.1% (v/v) Sigma Protease Inhibitor Cocktail. Aliquots were then frozen in dry ice/ethanol and kept at −80° C. until the day of the assay. II) A Ca^2+-Sensitive, Fluorescence-Based Assay α-7 for Nicotinic Acetylcholine Receptor Channel Function in Mammalian Cells (“FLIPR”). Summary: Lead compounds are evaluated for agonist activity at α-7, α3β4, α4αβ2, and α1β1δ1ε sub-types of nicotinic ACh receptor ion channels expressed in mammalian HEK 293 cells. Agonist potency and efficacy values are determined from kinetic fluorescence Ca^2+ influx measurements made using a 384 well FLIPR (Fluorescence Image Plate Reader). The utility of fluorescent indicators for measuring changes in intracellular divalent cation concentrations, particularly Ca^2+, for drug discovery endeavors is well documented (Rudiger, R., et al., Nature Reviews, 2003, 4:579-586; Gonzalez J. E., et al., Receptors and Channels, 2002, 8:283-295). In this assay, channel expressing HEK cell lines seeded in 384 well assay plates are loaded with a membrane permeant fluorescent Ca^2+ indicator dye, whose 510 nm green emission signal increases in response to elevation of intracellular Ca^2+ concentration. The basal fluorescence from the cells is monitored in real time, followed by the acute addition of test compounds. If the compound is an agonist at any of the non-selective cation channels, the latter open and allow the movement of extracellular Ca^2+ ions into the cell cytoplasm, where they bind to the Ca^2+ indicator dye, and produce an increase in fluorescence output signal, which is detected by a cooled CCD imaging camera.
(§1) Materials and Methods: Reagents: The acetomethoxy (AM) ester of the Ca^2+ indicator dye Fluo-4 was obtained from InVitrogen, (Carlsbad, Calif.). Acetylcholine and all buffer constituents were purchased from Sigma Chemical Company, St. Louis, Mo. G418 and Minimal Essential Medium were purchased from InVitrogen Life Technologies, Carlsbad, Calif. Fetal bovine serum was purchased from (InVitrogen, Carlsbad, Calif.).
(§2) Cell Culture: HEK-293 cells were grown in Minimal Essential Medium containing 10% (v/v) fetal bovine serum at 37° C. in a 5% CO2 incubator. HEK-293 cells stably expressing the ion channels were grown in the same medium with the addition of 500 μg/ml G418.
Ca^2+ flux assays of Ca^2+ channels expressed in HEK-293 cells: HEK-293 cells expressing the ion channels of interest were plated in 384 well, black-walled, clear-bottomed, poly-D-lysine coated plates at a density of ˜20,000 cells/well in 20 μl of Minimal Essential Medium containing 10% (v/v) fetal bovine serum and incubated for 2 days at 29° C. in a 5% CO2 incubator. Prior to assay, cells were loaded with the Fluo-4 AM ester. Cell loading was accomplished by removing the culture medium and replacing it with 30 μl/well of the AM ester of the dye (5 μM) mixed with Hanks Balanced Salt Solution (#14175-095) containing 20 mM HEPES, 2.5 mM probenecid, 0.5 mM CaCl2, 1 mM MgCl2 and 10 μM atropine. Dye loading was allowed to proceed for 90 minutes at room temperature at which time the dye loading solution was removed and replaced with 40 μl/well of Hanks buffer. Cells loaded with dye were loaded onto a FLIPR384 (Molecular Devices, Sunnyvale, Calif.). Fluo-4 dye was excited using the 488 nm line of an argon laser. Emission was filtered using a 540+/−30 nm bandpass filter. […]
A general note: Calcium flux is commonly read through the fluorescence of an indicator in the cells.
The compound `O=C(c1cc(C2CC2)[nH]n1)N1[C@@H]2C[C@H]3CC[N@@](C2)C[C@H]31` [Example 27, ((2R,3aR,6S,7aS)-hexahydro-2,6-methanopyrrolo[2,3-c]pyridin-1(2H)-yl)(5-cyclopropyl-1H-pyrazol-3-yl)methanone] showed a negative-log EC50 (pEC50) of less than 4.00. On the same count and under the same terms, then `O=C(c1n[nH]c2c(Cl)cccc12)N1[C@@H]2C[C@H]3CC[N@@](C2)C[C@H]31` [Example 28, (7-chloro-1H-indazol-3-yl)((2R,3aR,6S,7aS)-hexahydro-2,6-methanopyrrolo[2,3-c]pyridin-1(2H)-yl)methanone], with 4.44; and `O=C(c1noc2ccccc12)N1[C@@H]2C[C@H]3CC[N@@](C2)C[C@H]31` [Example 29, benzo[d]isoxazol-3-yl((2R,3aR,6S,7aS)-hexahydro-2,6-methanopyrrolo[2,3-c]pyridin-1(2H)-yl)methanone], with 5.51; and `Cc1ccc2c(C(=O)N3[C@@H]4C[C@H]5CC[N@@](C4)C[C@H]53)n[nH]c2c1` [Example 30, (6-methyl-1H-indazol-3-yl)((2R,3aR,6S,7aS)-hexahydro-2,6-methanopyrrolo[2,3-c]pyridin-1(2H)-yl)methanone], with 6.72.

As to `O=C(c1n[nH]c2ncccc12)N1[C@@H]2C[C@H]3CC[N@@](C2)C[C@H]31` [Example 31, ((2R,3aR,6S,7aS)-hexahydro-2,6-methanopyrrolo[2,3-c]pyridin-1(2H)-yl)(1H-pyrazolo[3,4-b]pyridin-3-yl)methanone], the pEC50 was 5.04. In turn, `O=C(c1cc(-c2ccccc2)[nH]n1)N1[C@@H]2C[C@H]3CC[N@@](C2)C[C@H]31` [Example 32, ((2R,3aR,6S,7aS)-hexahydro-2,6-methanopyrrolo[2,3-c]pyridin-1(2H)-yl)(5-phenyl-1H-pyrazol-3-yl)methanone] gave a pEC50 of less than 4.00. Still for that read-out and setting: then `O=C(c1n[nH]c2ccccc12)N1[C@@H]2C[C@H]3CC[N@@](C2)C[C@H]31` [Example 33, ((2R,3aR,6S,7aS)-hexahydro-2,6-methanopyrrolo[2,3-c]pyridin-1(2H)-yl)(1H-indazol-3-yl)methanone], with 6.82.

Another assay addresses T2, α7-HI (Rattus norvegicus, UniProt Q05941).
T2 construct: expressed in transfected cells
Kind of assay: FLIPR Ca2+-sensitive fluorescence assay, α7-HI (agonist activity) in HEK 293 cells. Format: cell-based.
Settings: not given
The procedure:
I) α7 Nicotinic Acetycholine Receptor Binding. Membranes were prepared for binding using HEK293 cells stably expressing the rat α7 nicotinic acetycholine receptor (rat α7 nAChR). Cells were homogenized at 4° C. in hypotonic lysis buffer consisting of 10 mM Tris (pH 7.4), 5 mM EDTA and protease inhibitors and centrifuged at 32000×g for 20 minutes. The pellet was washed once in membrane wash buffer consisting of 50 mM Tris (pH 7.4), 1 mM EDTA and protease inhibitors and centrifuged at 32000×g for 20 minutes. This pellet was then resuspended in assay buffer consisting 50 mM KH2PO4 (pH 7.4 at 25° C.), 1 mM EDTA, 0.005% Triton-X 100 and 0.1% (v/v) Sigma Protease Inhibitor Cocktail. Aliquots were then frozen in dry ice/ethanol and kept at −80° C. until the day of the assay. II) A Ca^2+-Sensitive, Fluorescence-Based Assay α-7 for Nicotinic Acetylcholine Receptor Channel Function in Mammalian Cells (“FLIPR”). Summary: Lead compounds are evaluated for agonist activity at α-7, α3β4, α4αβ2, and α1β1δ1ε sub-types of nicotinic ACh receptor ion channels expressed in mammalian HEK 293 cells. Agonist potency and efficacy values are determined from kinetic fluorescence Ca^2+ influx measurements made using a 384 well FLIPR (Fluorescence Image Plate Reader). […] In this assay, channel expressing HEK cell lines seeded in 384 well assay plates are loaded with a membrane permeant fluorescent Ca^2+ indicator dye, whose 510 nm green emission signal increases in response to elevation of intracellular Ca^2+ concentration. The basal fluorescence from the cells is monitored in real time, followed by the acute addition of test compounds.
as §1, §2
Ca^2+ flux assays of Ca^2+ channels expressed in HEK-293 cells: HEK-293 cells expressing the ion channels of interest were plated in 384 well, black-walled, clear-bottomed, poly-D-lysine coated plates at a density of ˜20,000 cells/well in 20 μl of Minimal Essential Medium containing 10% (v/v) fetal bovine serum and incubated for 2 days at 29° C. in a 5% CO2 incubator. Prior to assay, cells were loaded with the Fluo-4 AM ester. […] Dye loading was allowed to proceed for 90 minutes at room temperature at which time the dye loading solution was removed and replaced with 40 μl/well of Hanks buffer. Cells loaded with dye were loaded onto a FLIPR384 (Molecular Devices, Sunnyvale, Calif.). Fluo-4 dye was excited using the 488 nm line of an argon laser. Emission was filtered using a 540+/−30 nm bandpass filter. For evaluation of the effects of test compounds using the Ca^2+ flux assay, compounds to be tested were provided in assay ready plates. For nicotinic receptor ion channel expressing cells, the assay was initiated by the addition of 20 μl/well of Hanks buffer containing test compounds. For all assays, data were collected at 1 Hz for 10 seconds (baseline), at which time the compound containing stimulus buffers are added, and further measurements collected at 0.33 Hz for 3 min.
Data Analysis: The statistical robustness of the nicotinic receptor Ca^2+ flux assays is determined from blanks and totals wells. […] The raw fluorescence units data files generated on the FLIPR plate reader are automatically exported and processed by in-house data analysis tools.
In turn, `O=C(c1n[nH]c2ccccc12)N1[C@@H]2C[C@H]3C[N@](CC[C@H]31)C2` [Example 34b, ((2R,3aS,5S,7aR)-hexahydro-2,5-methanopyrrolo[3,2-c]pyridin-1(6H)-yl)(1H-indazol-3-yl)methanone] gave a pEC50 of 6.60.

Staying with this assay, now noted: Table 4; Ca2+ flux, HEK-293 cells expressing the channel; read-out: FLIPR α7-HI (EC50).
Turning to `O=C(c1n[nH]c2ccccc12)N1[C@H]2C[C@@H]3C[N@@](CC[C@@H]31)C2` (single isomer, unassigned) [Example 34a], the negative-log EC50 (pEC50) is 8.12. Still for that read-out and setting: for `O=C(c1n[nH]c2ccccc12)N1C2CC3CN(CCC31)C2` (stereo not drawn) [Example 34, ((2S*,3aR*,5R*,7aS*)-hexahydro-2,5-methanopyrrolo[3,2-c]pyridin-1(6H)-yl)(1H-indazol-3-yl)methanone] the value was 7.54.

Consider `O=C(c1cc2cccc(Cl)c2s1)N1C2CC3CN(CCC31)C2` (stereo not drawn) [Example 35, ((2S*,3aR*,5R*,7aS*)-(7-chloro-benzo[b]thiophen-2-yl)(hexahydro-2,5-methanopyrrolo[3,2-c]pyridin-1(6H)-yl)methanone], for which the pEC50 is 5.25. The same measure, in the same setting: then `O=C(c1ccc(Cl)cc1)N1C2CC3CN(CCC31)C2` (stereo not drawn) [Example 36, ((2S*,3aR*,5R*,7aS*)-(4-chlorophenyl)(hexahydro-2,5-methanopyrrolo[3,2-c]pyridin-1(6H)-yl)methanone], with less than 4.00; and `Cn1nc(C(=O)N2C3CC4CN(CCC42)C3)c2ccccc21` (stereo not drawn) [Example 37, ((2S*,3aR*,5R*,7aS*)-(hexahydro-2,5-methanopyrrolo[3,2-c]pyridin-1(6H)-yl)(1-methyl-1H-indazol-3-yl)methanone], with less than 4.00; and `O=C(c1cc(-c2ccccc2)n[nH]1)N1C2CC3CN(CCC31)C2` (stereo not drawn) [Example 38, ((2S*,3aR*,5R*,7aS*)-(hexahydro-2,5-methanopyrrolo[3,2-c]pyridin-1(6H)-yl)(3-phenyl-1H-pyrazol-5-yl)methanone], with less than 4.00. The same measure, in the same setting: then `Cn1cc(C(=O)N2C3CC4CN(CCC42)C3)c2ccccc21` (stereo not drawn) [Example 39, ((2S*,3aR*,5R*,7aS*)-(hexahydro-2,5-methanopyrrolo[3,2-c]pyridin-1(6H)-yl)(1-methyl-1H-indol-3-yl)methanone], with less than 4.00; and `O=C(c1n[nH]c2ccc(Cl)cc12)N1C2CC3CN(CCC31)C2` (stereo not drawn) [Example 40, ((2S*,3aR*,5R*,7aS*)-(5-chloro-1H-indazol-3-yl)(hexahydro-2,5-methanopyrrolo[3,2-c]pyridin-1(6H)-yl)methanone], with 7.10; and `COc1ccc2[nH]nc(C(=O)N3C4CC5CN(CCC53)C4)c2c1` (stereo not drawn) [Example 41, ((2S*,3aR*,5R*,7aS*)-(5-methoxy-1H-indazol-3-yl)(hexahydro-2,5-methanopyrrolo[3,2-c]pyridin-1(6H)-yl)methanone], with less than 4.00. Still for that read-out and setting: then `O=C(c1n[nH]c2cc(F)ccc12)N1C2CC3CN(CCC31)C2` (stereo not drawn) [Example 42, ((2S*,3aR*,5R*,7aS*)-(6-fluoro-1H-indazol-3-yl)(hexahydro-2,5-methanopyrrolo[3,2-c]pyridin-1(6H)-yl)methanone], with 7.27.
